Source: patent publication US11793794B2, “Combination therapy for treating or preventing depression or other mood diseases” (YALE UNIVERSITY, priority 2018, dated 2023)

Tested on: patients with major depression
Assay: double-blind placebo-controlled crossover study: rapamycin or placebo 2 hours before ketamine infusion, depression severity (MADRS)
Format: in vivo, human
Procedure: The present studies address a longstanding question in the field—whether the antidepressant effects of ketamine depend upon its capacity to stimulate a key protein known as the mechanistic target for rapamycin (mTOR). If that is indeed the case, ketamine's effects should be reduced when mTOR is inhibited. To test this hypothesis, a double-blind placebo-controlled crossover study was conducted under fully randomized conditions, whereby one set of patients was treated with the mTOR inhibitor rapamycin, an FDA approved drug that is currently used to treat certain immune disorders and cancers.
In this design, symptomatic antidepressant-treated patients with major depression who have a history of non-response to at least one prior antidepressant trial were recruited and studied over 3 years. Participants completed two ketamine infusion test days separated by at least two weeks. On each ketamine test day, patients were randomized to take a “loading dose” of rapamycin or placebo 2 hours before receiving an intravenous infusion of ketamine. The primary outcome measure of the study was the severity of depression, as measured by the Montgomery Åsberg Depression Rating Scale (MADRS). […]
Depression severity was assessed at baseline, and at 4 h, 24 h, 1 week, and 2 weeks post treatment. […]

CNC1(c2ccccc2Cl)CCCCC1=O (racemic) [ketamine, (RS)-2-(2-Chlorophenyl)-2-(methylamino)cyclohexanone]
time to relapse (placebo prior to 0.5 mg/kg iv ketamine, MADRS): ≤ 2 weeks
duration of benefits produced by ketamine (single ketamine infusion without rapamycin): a few days
